These are literature values, as cited in US20100286262A1, “PTGS2 HAPLOTYPES” (priority 2007, published 2010).

Read-outs that look alike come from different tables or passages of the source.

The conditions of series [1]: adjuvant setting; cited from earlier work.
Series [2] has as its system colorectal cancer (CRC) risk. To be noted: cited from earlier work.

Turning to `O=c1[nH]cc(F)c(=O)[nH]1` [5-fluorouracil], the Cardiotoxicity in series [1] is reported as 2-4%.

Consider `CC(=O)Oc1ccccc1C(=O)O` [aspirin], for which the “RR of CRC with aspirin use” value in series [2] (cancers with weak or absent COX-2 expression, 0.73-1.26) is given as 0.96; in series [2] (tumours overexpressing COX-2, 0.52-0.78), 0.64.
